Values quoted from earlier work in patent US6107342A, “2-amino-bicyclo[3.1.0]hexane-2,6-dicarboxylic acid derivatives and a process for the preparation thereof” (Hoffmann-La Roche Inc., priority 1998, dated 2000).

Experiments:
[1] = biological target: group II metabotropic glutamate receptor; settings: antagonism of inhibition by LY354740; Mol. Pharmacology, Vol.53, 228-233 (1998)
[2] = biological target: mGluR2; settings: Mol. Pharmacology, Vol.53, 228-233 (1998)
[3] = biological target: mGluR3; settings: Mol. Pharmacology, Vol.53, 228-233 (1998)

pKB [1]: 6.0 | Ki [2]: 52 nM | Ki [3]: 89 nM
SMILES: N[C@]1(C(=O)O)[C@H]2[C@@H](C[C@H]1O)[C@@H]2C(=O)O [I-A, (1S,2R,3R,5R,6S)-2-amino-3-hydroxy-bicyclo [3.1.0]hexane-2,6-dicarboxylic acid]
